# Results as given in ChEMBL document CHEMBL1139084, “N-Alkyl-N-alkyloxycarbonylaminomethyl (NANAOCAM) prodrugs of carboxylic acid containing drugs” (Bioorg Med Chem Lett, 2007).
# Legend:
# [1] = Stability in aqueous buffer assessed as hydrolysis half life; assay type: physicochemical
# [2] = Dissociation constant, pKa of the compound; assay type: physicochemical
# Zone of skin = test: Drug level in mouse skin; assay type: ADME, tissue-based; settings: in vitro
# [3] = Solubility in isopropyl myristate; assay type: physicochemical
# [4] = Partition coefficient, log K between isopropyl myristate and pH 4.0 buffer; assay type: ADME; settings: isopropyl myristate/pH 4.0 buffer
# [5] = Permeability across hairless mouse skin from isopropyl myristate; assay type: ADME, tissue-based, Zone of skin; settings: read-out: permeability (converted)
half-life [1],pKa [2],Drug uptake (Zone of skin),solubility [3],log K [4],Papp [5],Compound
3.65 min,4.5,,,,,COC(=O)N(C)COC(=O)Cc1c(C)n(C(=O)c2ccc(Cl)cc2)c2ccc(OC)cc12
,,2.71 µmol,,,,COc1ccc2cc([C@H](C)C(=O)O)ccc2c1 [NAPROXEN]
40 min,6,,,,,CCn1cc(C(=O)OCN(C)C(=O)OC)c(=O)c2ccc(C)nc21
120 min,4.2,,,,,COC(=O)N(COC(=O)[C@@H](C)c1ccc2cc(OC)ccc2c1)c1ccccc1
156 min,4.2,,,,,CCOC(=O)c1ccc(N(COC(=O)[C@@H](C)c2ccc3cc(OC)ccc3c2)C(=O)OC)cc1
49.8 min,4.2,,,,,COC(=O)N(COC(=O)[C@@H](C)c1ccc2cc(OC)ccc2c1)c1ccc(OC)cc1
2 min,4.2,4.21 µmol,5.16 mM,1.67,5.28 ×10⁻⁶ cm/s,COC(=O)N(C)COC(=O)[C@@H](C)c1ccc2cc(OC)ccc2c1
4.11 min,4.41,,,,,COC(=O)N(C)COC(=O)C(C)c1ccc(CC(C)C)cc1 (centres undefined)
